Assay: Human HepG2 cell viability assay in 384 well format
Assay type: toxicity, cell-based
Parameters: dose 125 nL, time 70.5 hour; concentration not given beside the values
Conditions: HepG2 cells, read-out: Inhibition

Row | SMILES | cytotoxicity at 70.5 h [%]
1 | Cn1cc(C(=O)N2CCOc3ccccc32)ccc1=O | -12.6
2 | Fc1cccc(-c2nc(CN3CCn4c(nnc4C4CC4)C3)co2)c1 | -8.24
3 | CCc1nc(C2CCCN2C(=O)c2cc[nH]n2)no1 (stereo not given) | 3.06
4 | Fc1cccc(Cl)c1CNCCCOc1ccccn1 | -3.63
5 | COCCNc1ccc(CC2CCCN(c3ncccn3)C2)nn1 (stereo not given) | -1.21
6 | Cc1nc(C2CCCN2C(=O)CNS(C)(=O)=O)no1 (stereo not given) | -13.3
7 | CC(C)c1nc(C(=O)N2CCCC(N)CC2)cs1 (stereo not given) | 25.2
8 | CSCCC(=O)N1CCC(c2nccn2CCN(C)C)CC1 | -2.46
9 | O=C1CCCCN1CCc1nc(C2(c3ccc(F)cc3)CCOC2)no1 (stereo not given) | 12.7
10 | CN1CC(C(=O)NCc2ccc(Br)cc2F)CC1=O (stereo not given) | -14.4
11 | COc1cccc(CN2CCCC3(CCN(C(CO)CO)C3)C2)c1 (stereo not given) | -7.1
12 | CNCC[C@H]1CC(C)(C)Oc2ccc(C)cc21 | -2.65
13 | CCc1ncc2c(n1)CN(C(=O)CC(C)NC(C)=O)C2 (stereo not given) | -5.94
14 | COc1ccccc1COCC(O)CN1CC(n2cccn2)C1 (stereo not given) | -10.8
15 | Cc1nccn1C1(C(=O)O)CCN(Cc2ccc3c(c2)OCCO3)CC1 | -3.95
16 | COCc1nc(C(=O)N2CCCC2c2cccc(C)c2)cs1 (stereo not given) | -8.14
17 | Cc1nn(C)c(C)c1S(=O)(=O)NCCn1ccc(-c2cccs2)n1 | -0.512
18 | CN(CC(=O)N1CCC(C(O)c2ccccc2)CC1)c1cnccn1 (stereo not given) | -20.6
19 | CCCN1CCC(NC(=O)c2csc(C)c2-c2ccccc2)CC1 | -9.07
20 | O=c1[nH]c(-c2ccncc2)nc2c1CCN(S(=O)(=O)N1CCCC1)C2 | -13.7
21 | Cc1ccc2c(c1)cc(CN1CC[C@](C)(O)[C@H](C)C1)n2C | -0.93
22 | CCN(CC)S(=O)(=O)c1cc(NC(=O)CCc2cscn2)ccc1C | -6.12
23 | O=C(O)CC[C@@H]1CN(c2ncnc3[nH]ccc23)CC[C@@H]1N1CCOCC1 | -4.6

Row | SMILES | cytotoxicity at 70.5 h [%]
24 | CC(=O)N1CCCN(C(=O)NC(C)c2ccc(C)o2)CC1 (stereo not given) | 1.15
25 | Cc1cccc(C(C(=O)N(C)Cc2cc(C)no2)N(C)C)c1 (stereo not given) | -7.53
26 | CC(C)N1CCN(C)C2(CCN(C(=O)c3ccnnc3)CC2)C1=O | -4.95
27 | CCOCCCNc1ncc(-c2cccc(F)c2)c(-c2nccn2C)n1 | -3.33
28 | Cc1nc(C2CCCN(C(=O)CCCn3cccn3)C2)sc1C (stereo not given) | -15.3
29 | O=C(NCCCn1cccn1)C1CCC(=O)N(CC2CCCCC2)C1 (stereo not given) | -2.08
30 | O=C(N1CCCC1)N1C[C@H]2CCC[C@@]2(COCc2ccccn2)C1 | -10.8
31 | CNC(=O)[C@@]12CCC3(CCN(S(C)(=O)=O)CC3)[C@@H]1CN(S(C)(=O)=O)C2 | 1.46
32 | NC(=O)C1CCN(c2ccc3cc(Br)ccc3n2)C1 (stereo not given) | -89.2
33 | CCc1nc2ccccc2c(=O)n1CC1(O)CCN(C(=O)C(C)C)CC1 | -8.49
34 | CC(C)(C)OC(=O)N1CCCc2ccc(NCc3cc[nH]c3)cc21 | -9.07
35 | O=C(CCc1ccccc1F)NS(=O)(=O)c1ccc2c(c1)OCCO2 | 21.2
36 | CC(C)n1c2ccccc2c2c1cc(C(=O)NC1CC1)n2C(=O)N(C)C | 1.81
37 | Cc1n[nH]c(C2CN(C(=O)c3ccco3)CCO2)n1 (stereo not given) | -4.63
38 | OCC1(Cc2ccc(F)cc2F)CCCN(Cc2ccncc2)C1 (stereo not given) | -5.76
39 | CC(C)OC(=O)N1C[C@H]2CC[C@@H]1CN(Cc1cccnc1)C2 | -3.17
40 | O=C(O)c1cc(-c2cncnc2)cc(S(=O)(=O)N2CCCCCC2)c1 | -10.5
41 | CCc1n[nH]c(C2CN(C(=O)c3cnc(C)s3)CCO2)n1 (stereo not given) | 23.1
42 | O=C(c1cnc(NCC2CCCO2)c(Cl)c1)N1CCCCC1 (stereo not given) | 30.2
43 | CN(CCN1CCCCCC1)C(=O)c1cc(CN2CCCC(O)C2)on1 (stereo not given) | -10.1
44 | CCN(Cc1cn(C)nc1-c1ccc2c(c1)OCCO2)CC1CCCO1 (stereo not given) | -6.76
45 | CCCNC(=O)c1cc(-c2ccn(C(C)C)n2)n2ccccc12 | -7.13

From ChEMBL document CHEMBL3507680, “University of Dundee, Gates Library screen for HepG2 cell viability”
